The source of these data is US20060040984A1, “Novel piperidine derivatives for use in the treatment of chemokine medicated disease states” (priority 2002, published 2006).

Structures are written as SMILES.

For orientation: inhibition means the relative decrease from the control value, in per cent.

T2 sequence (P35367 whole entry): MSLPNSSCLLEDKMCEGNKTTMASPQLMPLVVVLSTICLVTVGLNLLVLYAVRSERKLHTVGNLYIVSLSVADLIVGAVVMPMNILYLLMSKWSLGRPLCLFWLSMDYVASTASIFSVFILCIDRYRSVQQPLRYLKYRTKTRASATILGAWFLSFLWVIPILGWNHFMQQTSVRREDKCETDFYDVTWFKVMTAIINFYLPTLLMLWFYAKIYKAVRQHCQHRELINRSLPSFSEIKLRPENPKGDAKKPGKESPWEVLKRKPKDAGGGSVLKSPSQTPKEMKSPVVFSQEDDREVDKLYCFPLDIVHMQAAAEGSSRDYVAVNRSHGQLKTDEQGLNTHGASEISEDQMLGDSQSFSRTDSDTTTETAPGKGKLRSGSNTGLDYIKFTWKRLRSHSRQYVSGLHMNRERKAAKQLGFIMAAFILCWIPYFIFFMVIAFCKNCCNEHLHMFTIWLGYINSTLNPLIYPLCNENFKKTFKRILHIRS

The first assay concerns the target T1, CCR3 (Homo sapiens, UniProt P51677).
T1 construct: Human eosinophils were isolated from EDTA anticoagulated peripheral blood; endogenous in cells; host or cells: human peripheral blood eosinophils
T1 sequence (P51677 1-355): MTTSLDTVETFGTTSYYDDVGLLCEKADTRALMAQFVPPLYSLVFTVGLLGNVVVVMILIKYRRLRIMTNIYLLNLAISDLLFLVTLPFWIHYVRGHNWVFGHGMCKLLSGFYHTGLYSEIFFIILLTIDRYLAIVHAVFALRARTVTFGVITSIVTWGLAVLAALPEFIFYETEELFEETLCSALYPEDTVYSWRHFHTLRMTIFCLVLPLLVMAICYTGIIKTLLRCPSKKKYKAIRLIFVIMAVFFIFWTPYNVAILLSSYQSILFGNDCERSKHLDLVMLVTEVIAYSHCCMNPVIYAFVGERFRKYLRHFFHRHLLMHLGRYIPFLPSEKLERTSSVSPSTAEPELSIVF
The assay is described as follows: Human eosinophil chemotaxis (eotaxin mediated). It is filed as cell-based. Conditions: read-out: % inhibition at 1 μM, 1 μM compound, human eosinophils. The method, then: Human Eosinophil Chemotaxis
Human eosinophils were isolated from EDTA anticoagulated peripheral blood as previously described (Hansel et al., J. Immunol. Methods, 1991, 145, 105-110). The cells were resuspended at 10×10^6 mL-1 in RPMI containing 200 IU/mL penicillin, 200 μg/mL streptomycin sulfate and supplemented with 10% HIFCS, at room temperature.
Eosinophils (700 μl) were pre-incubated for 15 mins at 37° C. with 7 μl of either vehicle or compound (100× required final concentration in 10% DMSO). […] The filter was then placed over the wells and 25 μl of eosinophil suspension were added to the top of the filter. The plate was incubated for 1 hr at 37° C. in a humidified incubator with a 95% air/5% CO2, atmosphere to allow chemotaxis.
The medium, containing cells that had not migrated, was carefully aspirated from above the filter and discarded. The filter was washed once with phosphate buffered saline (PBS) containing 5 mM EDTA to remove any adherent cells. Cells that had migrated through the filter were pelleted by centrifugation (300×g for 5 mins at room temperature) and the filter removed and the supernatant transferred to each well of a 96-well plate (Costar). The pelleted cells were lysed by the addition of 28 μl of PBS containing 0.5% Triton ×100 followed by two cycles of freeze/thawing. The cell lysate was then added to the supernatant. The number of eosinophils migrating was quantified according to the method of Strath et al., J. Immunol. Methods, 1985, 83, 209 by measuring eosinophil peroxidase activity in the supernatant.
As for `COc1ccccc1C(C(=O)O)N1CCC(CN2CCC(Oc3ccc(Cl)c(Cl)c3)CC2)CC1` (stereo not drawn) [Example 4, 4-[[4-(3,4-Dichlorophenoxy)-1-piperidinyl]methyl]-α-(2-methoxyphenyl)-1-piperidineacetic acid], the inhibition at 1 µM stood at 90%. Still for that read-out and setting: under `COc1ccccc1C(C(=O)O)N1CCC(CN2CCC(Oc3ccc(Cl)cc3C)CC2)CC1` (stereo not drawn) [Example 10, 4-[[4-(4-Chloro-2-methylphenoxy)-1-piperidinyl]methyl]-α-(2-methoxyphenyl)-1-piperidineacetic acid] stands 108%; under `Cc1ccc(C(C(=O)O)N2CCC(CN3CCC(Oc4ccc(Cl)cc4C)CC3)CC2)cc1` (stereo not drawn) [Example 13, 4-[[4-(4-Chloro-2-methylphenoxy)-1-piperidinyl]methyl]-α-(4-methylphenyl)-1-piperidineacetic acid], 87%.

Another assay addresses T2, human H1 receptor (Homo sapiens, UniProt P35367).
T2 construct: purchased Euroscreen SA, Brussels, Belgium ES-390-M; host or cells: recombinant CHO-K1 cells (membranes)
The assay is described as follows: Histamine H1 receptor binding, displacement of [3H]-pyrilamine. Conditions: 1 nM [3H]-pyrilamine; membranes of recombinant CHO-K1 cells expressing human H1 receptor; read-out: H1 pKi/[1328_S] (converted). (Displacement assays read how much labelled ligand stays bound in the presence of the test substance.)
Consider `Cc1c(Cl)ccc(OC2CCN(CC3CCN(C(C(=O)O)c4ccccc4)CC3)CC2)c1Cl` (stereo not drawn) [Example 2, 4-[[4-(2,4-Dichloro-3-methylphenoxy)-1-piperidinyl]methyl]-α-phenyl-1-piperidineacetic acid], for which the Ki is 31.6 nM. Still for that read-out and setting: as for `O=C(O)C(c1ccc(F)cc1)N1CCC(CN2CCC(Oc3ccc(Cl)c(Cl)c3)CC2)CC1` (stereo not drawn) [Example 3, 4-[[4-(3,4-Dichlorophenoxy)-1-piperidinyl]methyl]-α-(4-fluorophenyl)-1-piperidineacetic acid], the figure is 39.8 nM; as for `COc1ccccc1C(C(=O)O)N1CCC(CN2CCC(Oc3ccc(Cl)c(Cl)c3)CC2)CC1` (stereo not drawn) [Example 4, 4-[[4-(3,4-Dichlorophenoxy)-1-piperidinyl]methyl]-α-(2-methoxyphenyl)-1-piperidineacetic acid], 100 nM; as for `Cc1ccccc1C(C(=O)O)N1CCC(CN2CCC(Oc3ccc(Cl)c(Cl)c3)CC2)CC1` (stereo not drawn) [Example 5, 4-[[4-(3,4-Dichlorophenoxy)-1-piperidinyl]methyl]-α-(2-methylphenyl)-1-piperidineacetic acid], 79.4 nM.

With `Cc1ccc(C(C(=O)O)N2CCC(CN3CCC(Oc4ccc(Cl)c(Cl)c4)CC3)CC2)cc1` (stereo not drawn) [Example 6, 4-[[4-(3,4-Dichlorophenoxy)-1-piperidinyl]methyl]-α-(4-methylphenyl)-1-piperidineacetic acid], the Ki is 20 nM.

Take `COc1ccccc1C(C(=O)O)N1CCC(CN2CCC(Oc3ccc(Cl)c(C)c3Cl)CC2)CC1` (stereo not drawn) [Example 7, 4-[[4-(2,4-Dichloro-3-methylphenoxy)-1-piperidinyl]methyl]-α-(2-methoxyphenyl)-1-piperidineacetic acid]: the Ki was 79.4 nM. Take `Cc1ccccc1C(C(=O)O)N1CCC(CN2CCC(Oc3ccc(Cl)c(C)c3Cl)CC2)CC1` (stereo not drawn) [Example 8, 4-[[4-(2,4-Dichloro-3-methylphenoxy)-1-piperidinyl]methyl]-α-(2-methylphenyl)-1-piperidineacetic acid]: the Ki was 50.1 nM.

With `Cc1ccc(C(C(=O)O)N2CCC(CN3CCC(Oc4ccc(Cl)c(C)c4Cl)CC3)CC2)cc1` (stereo not drawn) [Example 9, 4-[[4-(2,4-Dichloro-3-methylphenoxy)-1-piperidinyl]methyl]-α-(4-methylphenyl)-1-piperidineacetic acid], the Ki is 31.6 nM. Turning to `COc1ccccc1C(C(=O)O)N1CCC(CN2CCC(Oc3ccc(Cl)cc3C)CC2)CC1` (stereo not drawn) [Example 10, 4-[[4-(4-Chloro-2-methylphenoxy)-1-piperidinyl]methyl]-α-(2-methoxyphenyl)-1-piperidineacetic acid], the Ki was 251 nM. Same read-out and setting: as for `Cc1cc(Cl)ccc1OC1CCN(CC2CCN(C(C(=O)O)c3ccccc3C)CC2)CC1` (stereo not drawn) [Example 11, 4-[[4-(4-Chloro-2-methylphenoxy)-1-piperidinyl]methyl]-α-(2-methylphenyl)-1-piperidineacetic acid], the figure is 158 nM; as for `COc1ncc(C(C(=O)O)N2CCC(CN3CCC(Oc4ccc(Cl)c(Cl)c4)CC3)CC2)c(OC)n1` (stereo not drawn) [Example 12, α-[4-[[4-(3,4-Dichlorophenoxy)-1-piperidinyl]methyl]-1-piperidinyl]-2,4-dimethoxy-5-pyrimidineacetic acid], 200 nM; as for `Cc1ccc(C(C(=O)O)N2CCC(CN3CCC(Oc4ccc(Cl)cc4C)CC3)CC2)cc1` (stereo not drawn) [Example 13, 4-[[4-(4-Chloro-2-methylphenoxy)-1-piperidinyl]methyl]-α-(4-methylphenyl)-1-piperidineacetic acid], 25.1 nM. Regarding `CC(=O)Nc1cccc(C(C(=O)O)N2CCC(CN3CCC(Oc4ccc(Cl)c(Cl)c4)CC3)CC2)c1` (stereo not drawn) [Example 14, α-[3-(Acetylamino)phenyl]-4-[[4-(3,4-dichlorophenoxy)-1-piperidinyl]methyl]-1-piperidineacetic acid], the Ki was 25.1 nM.

`Cc1c(Cl)ccc(OC2CCN(CC3CCN(C(C(=O)O)c4ccc(F)cc4)CC3)CC2)c1Cl` (stereo not drawn) [Example 15, 4-[[4-(2,4-Dichloro-3-methylphenoxy)-1-piperidinyl]methyl]-α-(4-fluorophenyl)-1-piperidineacetic acid]: the Ki was 25.1 nM.

Consider `O=C(O)C(c1ccccc1)N1CCC(O)(CN2CCC(Oc3ccc(Cl)c(Cl)c3)CC2)CC1` (stereo not drawn) [Example 17, 4-[[4-(3,4-Dichlorophenoxy)-1-piperidinyl]methyl]-4-hydroxy-α-phenyl-1-piperidineacetic acid], for which the Ki was 10 nM.

Regarding `Cc1ccc(C(C(=O)O)N2CCC(O)(CN3CCC(Oc4ccc(Cl)c(Cl)c4)CC3)CC2)cc1` (stereo not drawn) [Example 18, 4-[[4-(3,4-Dichlorophenoxy)-1-piperidinyl]methyl]-4-hydroxy-α-(4-methylphenyl)-1-piperidineacetic acid], the Ki was 15.8 nM. On to `COc1ccccc1C(C(=O)O)N1CCC(O)(CN2CCC(Oc3ccc(Cl)c(Cl)c3)CC2)CC1` (stereo not drawn) [Example 19, 4-[[4-(3,4-Dichlorophenoxy)-1-piperidinyl]methyl]-4-hydroxy-α-(2-methoxyphenyl)-1-piperidineacetic acid], for which the Ki is 7.94 nM. Take `COC(=O)c1ccccc1CN1CCC(CN2CCC(Oc3ccc(Cl)c(Cl)c3)CC2)CC1` [Example 42, methyl 2-[(4-{[4-(3,4-dichlorophenoxy)piperidin-1-yl]methyl}piperidin-1-yl)methyl]benzoate]: the Ki was 10 nM. The same measure, in the same setting: under `COC(=O)CN1CCC(CN2CCC(Oc3ccc(Cl)cc3C)CC2)CC1` [Example 69, Methyl-4-[[4-(4-chloro-2-methylphenoxy)-1-piperidinyl]methyl]-1-piperidineacetate] stands 126 nM; under `O=C(O)CN1CCC(CN2CCC(Oc3ccc(Cl)c(Cl)c3)CC2)CC1` [Example 77, 4-[[4-(3,4-dichlorophenoxy)-1-piperidinyl]methyl]-1-piperidineacetic acid], 126 nM.

On to `Cc1c(Cl)ccc(OC2CCN(CC3CCN(CC(=O)O)CC3)CC2)c1Cl` [Example 78, 4-[[4-(2,4-Dichloro-3-methylphenoxy)-1-piperidinyl]methyl]-1-piperidineacetic acid], for which the Ki was 200 nM.

For the compound `O=C(O)CN1CCC(O)(CN2CCC(Oc3ccc(Cl)c(Cl)c3)CC2)CC1` [Example 82, 4-[[4-(3,4-Dichlorophenoxy)-1-piperidinyl]methyl]-4-hydroxy-1-piperidineacetic acid], the Ki was 100 nM.

In the case of `C[C@@H](C(=O)O)N1CCC(CN2CCC(Oc3ccc(Cl)c(Cl)c3)CC2)CC1` [Example 84, (2S)-2-(4-{[4-(3,4-Dichlorophenoxy)piperidin-1-yl]methyl}piperidin-1-yl)propanoic acid], the Ki was 200 nM. Same read-out and setting: under `Clc1ccc(OC2CCN(CC3CCN(Cc4nn[nH]n4)CC3)CC2)cc1Cl` [Example 100, 4-(3,4-dichlorophenoxy)-1-[[1-(2H-tetrazol-5-ylmethyl)-4-piperidinyl]methyl]-piperidine] stands 39.8 nM; under `O=S(=O)(NCCCN1CCC(CN2CCC(Oc3ccc(Cl)c(Cl)c3)CC2)CC1)C(F)(F)F` [Example 103, N-[3-[4-[[4-(3,4-Dichlorophenoxy)-1-piperidinyl]methyl]-1-piperidinyl]propyl]-1,1,1-trifluoro-methanesulfonamide], 20 nM.
